These results are taken from patent publication US20070161578A1, “Treatment of nonalcoholic fatty liver disease using cholesterol lowering agents and/or H3 receptor antagonist/inverse agonist” (priority 2005, published 2007).

Test [1] deals with Diet induced obese (DIO) mice. Put plainly: DIO mice with hepatic steatosis and fibrosis, plasma ALT after four weeks treatment (Example 2). Format: in vivo. Conditions: formula XIIID 9 mg/kg/day, alone or with ezetimibe 2 mg/kg/day. Here is the method: Diet induced obese (DIO) mice, which had developed obesity, dyslipidemia, hepatic steatosis and fibrosis by feeding them a western diet containing 45% fat and 0.12% cholesterol for seven months, were divided into four groups and treated with nothing (control), ezetimibe (formula II) (2 mg/kg/day), the compound of formula XIIID (9 mg/kg/day) or a combination of ezetimibe (2 mg/kg/day) and compound of formula XIIID (9 mg/kg/day) for four weeks. The mice were sacrificed and the plasma alanine aminotransferase (ALT) enzyme activities, a plasma biomarker of liver injury with steatohepatitis, were determined for each group, this is summarized in FIG. 5.

The subject of the next test is Niemann-Pick type C mice. As to conditions: ezetimibe treatment; cited from earlier work.
The test system of test [2] is Diet-induced obese (DIO) mice. The test is described as follows: Diet-induced obese (DIO) mice with hepatic steatosis, four weeks treatment (first example). Format: in vivo. As to conditions: ezetimibe 5 mg/kg/day, formula XIIIA 12 mg/kg/day, or both.
Protocol: The mice were sacrificed and the liver weight, liver triglyceride level and liver free cholesterol content were determined for each group were determined and summarized in FIGS. 1 to 4.
The subject of another test is DIO mice. Put plainly: DIO C57BL/6J mice on high fat/cholesterol diet, 4 weeks ezetimibe in diet (Example 3). Format: in vivo. Also noted: liver to body weight ratio (FIG. 6), top dose group: dose or concentration left out as unconfirmed. An excerpt:
C57BL/6J mice were fed a high fat/cholesterol diet (Research Diets, with 45% Kcal fat and 0.12% w/w cholesterol) for 7 months after weaning.

Setting [3] is: after 4 weeks of ezetimibe treatment.
Setting [4] is: after 4 weeks, ezetimibe-treated DIO mice compared to the control.
Setting [5] is: after 4 weeks, livers from ezetimibe-treated mice.
The mark [6] stands for this setting: ezetimibe 1.6 and 5.3 mg/kg/day, compared to the control group.

Each structure is given as a SMILES string.

For `CO/N=C(/c1ccccn1)C1CCN(C(=O)C2(F)CCN(Cc3ccnc(N)c3)CC2)CC1` [formula XIIID], the “plasma alanine aminotransferase (ALT) enzyme activities (FIG. 5)” value in test [1] is on record as “decrease in plasma ALT”.
Regarding `O=C1[C@H](CC[C@H](O)c2ccc(F)cc2)[C@@H](c2ccc(O)cc2)N1c1ccc(F)cc1` [ezetimibe], in the test on Niemann-Pick type C mice, the hepatic cholesterol accumulation entry is listed as “reduced hepatic cholesterol accumulation”, the histological abnormalities result was “improved histological abnormalities” and the liver enzymes result is on record as “improved”. Moreover, the “effect in treating NAFLD (conclusion from FIGS. 1 to 4)” value in test [2] was “effective in treating NAFLD”. In test [2] (vs control), the “liver cholesteryl ester content (FIG. 3)” value was “decrease in liver cholesteryl ester content”; the “liver free cholesterol content (FIG. 4)” value was “decrease in liver cholesterol content”; the “liver triglyceride levels (FIG. 2)” value was “decrease in liver triglyceride levels”; the “liver weight (liver to body weight ratio, FIG. 1)” value is listed as “decrease in liver weight”. In addition, in the test on DIO mice (setting [3]), the HDL-C entry is reported as “not changed”, the LDL-C entry was “significant decreases”, the VLDL-C result is given as “significant decreases” and the “reduction of plasma triglyceride” value amounted to 15%. Further, the “reduction of total plasma cholesterol” value in the test with DIO mice (setting [3]) is reported as 30%. In the test with DIO mice (setting [4]), the “liver to body weight ratio” value is reported as “significantly reduced” and the liver wet weight entry is “significantly reduced”. In addition, in the test with DIO mice (setting [5]), the liver cholesteryl esters entry was “significantly lower”, the liver free cholesterol entry is reported as “significantly lower” and the liver triglyceride entry was “significantly lower”. The “liver triglyceride levels (FIG. 7), across doses” value in the test on DIO mice (all groups that received ezetimibe, 4 weeks) is “dose-dependent decrease in liver triglyceride levels”. The “liver to body weight ratio (FIG. 6), across doses” value with DIO mice (ezetimibe 0.5, 1.6 and 5.3 mg/kg/day, 4 weeks) is given as “dose-dependent decrease in liver to body weight ratio”. Also, in the test on DIO mice (setting [6]), the “liver cholesterol content (FIG. 9)” value is given as “significant decrease in liver cholesterol content” and the “liver cholesteryl ester content (FIG. 8)” value is “significant decrease in liver cholesteryl ester content”. Also, in the test on DIO mice (ezetimibe, 4 weeks), the “liver to body weight ratio (FIG. 6), top dose group” value is reported as “greatest decline in liver to body weight ratio”. The VLDL-TG production rates result in the test on DIO mice (ezetimibe-treated vs control DIO mice) is given as “comparable”.
